Values quoted from earlier work in patent US20100249179A1, “Farnesoid X Receptor Agonists” (SMITHKLINE BEECHAM CORPORATION, priority 2007, published 2010).
Entries after “also recorded” stand apart in the source; their conditions may differ.

How the values were obtained:
[1] = tested on: C57BL mice on high-fat diet; details: cited from earlier work
male ob/ob mice = details: GW4064 30 mg/kg intraperitoneally; cited from earlier work
diabetic db/db mice = details: cited from earlier work
bile duct-ligated mouse = bile duct-ligated mouse model; cited from earlier work
[2] = tested on: mice on a lithogenic diet; details: cited from earlier work
[3] = GW4064 100 mg/kg twice a day orally, high-fat diet mice, 100 mg/kg
[4] = GW4064 100 mg/kg twice a day orally, high-fat diet mice
[5] = oral GW4064 30 mg/kg bid, db/db mice

CC(C)c1onc(-c2c(Cl)cccc2Cl)c1COc1ccc(/C=C/c2cccc(C(=O)O)c2)c(Cl)c1 [GW4064]
glucose tolerance ([1]; GW4064 100 mg/kg twice a day orally, high-fat diet mice, GTT, 100 mg/kg): corrected glucose intolerance; also recorded: improve | serum glucose [1, 3]: decreased | serum insulin [1, 3]: decreased | serum triglyceride [1, 3]: decreased | high-fat diet induced body weight gain [1, 4]: reduced | liver triglyceride content [1, 4]: reduced | body fat mass ([1]; mice on high-fat diet): decrease | body weight ([1]; mice on high-fat diet): decrease | total cholesterol ([1]; mice on high-fat diet): decrease | body weight (male ob/ob mice): did not alter | fasting blood glucose (male ob/ob mice): no effect | food intake (male ob/ob mice): did not alter | glucose tolerance (male ob/ob mice): improved | insulin concentration (male ob/ob mice): decreased | insulin sensitivity (male ob/ob mice): enhanced | glycogen storage in the liver (diabetic db/db mice; db/db mice): enhanced | insulin signalling in the liver (diabetic db/db mice; db/db mice): enhanced | hyperglycemia (diabetic db/db mice; diabetic db/db mice): significantly improved | hyperlipidemia (diabetic db/db mice; diabetic db/db mice): significantly improved | NEFA (diabetic db/db mice; [5]): decreased | blood glucose (diabetic db/db mice; [5]): decreased | serum β-hydroxybutyrate (diabetic db/db mice; [5]): decreased | total cholesterol (diabetic db/db mice; [5]): decreased | triglyceride (diabetic db/db mice; [5]): decreased | bacterial overgrowth (bile duct-ligated mouse): decreased | mucosal barrier (bile duct-ligated mouse): improved | translocation of bacteria to mesenteric lymph nodes (bile duct-ligated mouse): decreased | formation of cholesterol crystals in the bile [2]: prevented
